Assays:
[1] = molecular target: T1, Inosine-5'-monophosphate dehydrogenase 2 (Homo sapiens, UniProt P12268); assay: Inhibition of Inosine Monophosphate Dehydrogenase II (IMPDH II)
[2] = molecular target: T1, Inosine-5'-monophosphate dehydrogenase 2; assay: Inhibitory concentration required against Inosine Monophosphate Dehydrogenase II (IMPDH II) was determined in vitro at a concentration 100 uM
[3] = molecular target: T1, Inosine-5'-monophosphate dehydrogenase 2; assay: Inhibitory concentration required against Inosine Monophosphate Dehydrogenase II (IMPDH II) was determined in vitro at a concentration 500 uM

Row | IC50 [1] [nM] | Structure (SMILES) | further results
1 | 190 | COc1cc(Nc2nnc(-c3ccccc3)[nH]2)ccc1-c1cnco1 | –
2 | 110 | COc1cc(-c2ccccc2)nc(Nc2ccc(-c3cnco3)c(OC)c2)n1 | –
3 | 120 | COc1cc(Nc2cc(-c3ccccc3)on2)ccc1-c1cnco1 | –
4 | 330 | COc1cc(Nc2nnc(-c3ccccc3)s2)ccc1-c1cnco1 | –
5 | – | COc1cc(Nc2nc(-c3ccccc3)c[nH]2)ccc1-c1cnco1 | inhibition [2]: 7%
6 | 44 | COc1cc(Nc2nnc(-c3ccccc3)o2)ccc1-c1cnco1 | –
7 | 110 | COc1cc(NC2=NCC(c3ccccc3)O2)ccc1-c1cnco1 (stereo unspecified) | –
8 | 59 | COc1cc(Nc2noc(-c3ccccc3)n2)ccc1-c1cnco1 | –
9 | 300 | COc1cc(Nc2nc(-c3ccccc3)cs2)ccc1-c1cnco1 | –
10 | 760 | COc1cc(Nc2cnc(-c3ccccc3)s2)ccc1-c1cnco1 | –
11 | – | COc1cc(Nc2cccc(-c3ccccc3)c2)ccc1-c1cnco1 | inhibition [3]: 30%

— ChEMBL document CHEMBL1134939, “A survey of cyclic replacements for the central diamide moiety of inhibitors of inosine monophosphate dehydrogenase” (Bioorg Med Chem Lett, 2002)
